Measured values from patent publication US11155523B2, “Biphenyl compound as CCR2/CCR5 receptor antagonist” (Medshine Discovery Inc., priority 2016, dated 2021).

How the values were obtained:
CCR2 = target: T1, CCR2 (Homo sapiens, UniProt P41597); test: CCR2 in vitro test: intracellular calcium signal detected by FLIPR; assay type: cell-based; conditions: HEK293 cells expressing CCR2, agonist MCP-1 at EC80, calcium signal
T1 construct: expressed in transfected cells; host or cells: HEK293, clone C7, passage P6
T1 sequence (P41597 whole entry, species assumed): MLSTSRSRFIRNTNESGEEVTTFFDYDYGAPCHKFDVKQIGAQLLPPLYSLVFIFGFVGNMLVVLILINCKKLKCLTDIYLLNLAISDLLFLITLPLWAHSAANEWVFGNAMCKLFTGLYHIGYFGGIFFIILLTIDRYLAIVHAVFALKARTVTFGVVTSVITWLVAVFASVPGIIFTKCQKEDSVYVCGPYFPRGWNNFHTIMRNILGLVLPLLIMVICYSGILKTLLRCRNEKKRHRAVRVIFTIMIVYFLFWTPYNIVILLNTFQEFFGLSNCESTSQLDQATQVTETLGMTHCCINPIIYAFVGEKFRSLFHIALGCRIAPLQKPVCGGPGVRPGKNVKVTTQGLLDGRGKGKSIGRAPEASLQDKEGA
Experimental: (§1) Experimental Example 1: CCR2/CCR5 In Vitro Test
(§2) The intracellular calcium signal was detected by FLIPR, and the IC50 value of the compound was used as an index to evaluate the inhibitory effect of the compound on CCR2 and CCR5 receptors.
(§3) 1. Cell line: The cells were inoculated and incubated in a 5% CO2 incubator at 37° C. overnight.
(§4) CCR2/CCR5 density: 1 M (20 k/well)
(§5) 2. Reagents: Fluo-4 Direct, (Invitrogen, Cat #F10471)
(§6) The compound was dissolved in DMSO to prepare a 10 mM solution, and the compound solution was placed in a nitrogen box.
(§7) Agonist reference compounds:
(§8) Preparation of probenecid in FLIPR assay buffer: 1 mL of FLIPR assay buffer was added to […] of probenecid to prepare a 250 mM solution, which is prepared fresh daily.
(§9) 2× (8 μM) Fluo-4 Direct™ Loading Buffer (per 10 mL) • Thaw a bottle of Fluo-4 Direct™ crystal (F10471). • Add 10 mL of FLIPR assay buffer to the vial. • Add 0.2 mL of probenecid to each 10 mL of Fluo-Direct. The final concentration of the assay was 2.5 mM. • Rotate it and place for >5 minutes (in absence of light). • Prepare fresh daily.
(§10) MCP-1 was diluted in FLIPR assay buffer 1:2 into 10 points, starting at 0.5 uM (final 100 nM). RANTES was diluted in FLIPR assay buffer 1:3 into 10 points, starting at 0.5 uM (final 100 nM). 20 uL of serially diluted compound buffer was added to each well of the DRC plate according to the compound plate map.
(§11) Standard compound was diluted in DMSO 1:3 into 11 points, starting at 1 mM. Test compound was diluted in DMSO 1:3 into 11 points, starting at 2 mM. 250 nL of compound solution was transferred into a cell plate using Echo (Greiner #781946).
(§12) (c) Take the cell plate out of the incubator, and gently dispense 20 uL of 2× Fluo-4 Direct wash-free loading buffer into a 384-well cell culture plate using a pipette. The final cell plate is 40 μL in volume.
(§13) (d) Incubate for 50 minutes at 37° C. under 5% CO2, and for 10 minutes at room temperature.
(§14) (e) Take the cell plate out of the incubator, and place it in FLIPR. Place the composite plate and the tip box in FLIPR.
(§15) (f) For DRC plate: • 1) Run the program on FLIPRTETRA. • 2) Read the fluorescent signal. • 3) Transfer 10 μL of compound from the DRC plate to the cell plate. • 4) Read the fluorescent signal. • 5) Calculate the “maximum−minimum” from Read 90 to the maximum allowed. Use FLIPR to calculate the EC80 value of each cell line. • 6) Prepare 5×EC80 concentration of the agonist reference compound.
(§16) (g) For the composite plate (1-add): • 1) Run the program on FLIPRTETRA. • 2) Transfer 10 μl, of 5×EC80 concentration of the agonist reference compound from the composite plate to the cell plate. • 3) Read the fluorescent signal. • 4) Calculate the “maximum−minimum” from Read 90 to the maximum allowed.
(§17) (h) Analyze the data using Prism, and calculate the IC50 value of the compound.

CCR5 = target: T2, CCR5 (Homo sapiens, UniProt P51681); test: CCR5 in vitro test: intracellular calcium signal detected by FLIPR; assay type: cell-based; conditions: HEK293 cells expressing CCR5, agonist RANTES at EC80, calcium signal
T2 construct: expressed in transfected cells; host or cells: HEK293, clone C13, passage P4
T2 sequence (P51681 whole entry, species assumed): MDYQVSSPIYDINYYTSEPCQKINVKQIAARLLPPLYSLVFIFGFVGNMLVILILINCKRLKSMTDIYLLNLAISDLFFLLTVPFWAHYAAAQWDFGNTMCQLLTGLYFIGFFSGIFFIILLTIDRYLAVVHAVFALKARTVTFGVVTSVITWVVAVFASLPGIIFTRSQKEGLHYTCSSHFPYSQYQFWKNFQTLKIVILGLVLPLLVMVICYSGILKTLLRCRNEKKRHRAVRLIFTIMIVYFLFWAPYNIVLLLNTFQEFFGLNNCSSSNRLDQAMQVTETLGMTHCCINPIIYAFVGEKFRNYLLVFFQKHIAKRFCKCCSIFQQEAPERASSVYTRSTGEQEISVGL
Experimental: as §1, §2, §3, §4, §5, §6, §7, §8, §9, §10, §11, §12, §13, §14, §15, §16, §17

| Structure (SMILES) | IC50 (CCR2) | IC50 (CCR5) |
| --- | --- | --- |
| CCCCOCCOc1ccc(-c2ccc(O)c(/C=C/C(=O)Nc3ccc([S@@+]([O-])Cc4cncn4CCC)cc3)c2)cc1 [WX049] | 13.3 nM | 9.2 nM |
| CCCOc1ccc(-c2ccc(OC(F)F)c(/C=C/C(=O)Nc3ccc([S@@+]([O-])Cc4cncn4CCC)cc3)c2)cc1 [WX052] | 80.8 nM | 11.9 nM |
| CCCCOCCOc1ccc(-c2ccc(OC(F)(F)F)c(/C=C/C(=O)Nc3ccc([S@@+]([O-])Cc4c(C)ncn4CC)cc3)c2)cc1 [WX054] | 43.4 nM | 9.2 nM |
| CCCCOCCOc1ccc(-c2ccc(OC)c(/C=C/C(=O)Nc3ccc([S+]([O-])Cc4cnccc4C)cc3)c2)cc1 (centres unmarked) [WX056] | 71.1 nM | 16.6 nM |
| CCCCOCCOc1ccc(-c2ccc([S+]([O-])C(C)C)c(/C=C/C(=O)Nc3ccc([S@@+]([O-])Cc4c(C)ncn4CC)cc3)c2)cc1 (some centres unmarked) [WX057] | 24.7 nM | 3.5 nM |
| CCCCOCCOc1ccc(-c2ccc(SC(C)C)c(/C=C/C(=O)Nc3ccc([S@@+]([O-])Cc4cncn4CCC)cc3)c2)cc1 [WX058] | 28.2 nM | 5.7 nM |
| CCCCOCCOc1ccc(-c2ccc(C(F)(F)F)c(/C=C/C(=O)Nc3ccc([S@@+]([O-])Cc4cncn4CCC)cc3)c2)cc1 [WX060] | 18.5 nM | 4.1 nM |
| CCCOc1ccc(-c2ccc(OC(F)F)c(/C=C/C(=O)Nc3ccc([S@@+]([O-])Cc4c(C)ncn4CC)cc3)c2)cc1 [WX062] | 84.5 nM | 20.5 nM |
| CCCOCCOc1ccc(-c2ccc(OC)c(/C=C/C(=O)Nc3ccc([S@@+]([O-])Cc4c(C)ncn4CC)cc3)c2)cc1 [WX065] | 49.6 nM | 68 nM |
| CCCOCCOc1ccc(-c2ccc(OCC)c(/C=C/C(=O)Nc3ccc([S@@+]([O-])Cc4cncn4CCC)cc3)c2)cc1 [WX067] | 16.8 nM | 0.9 nM |
| CCCOCCOc1ccc(-c2ccc(OCC)c(/C=C/C(=O)Nc3ccc([S+]([O-])Cc4c(C)ncn4CCC)cc3)c2)cc1 (centres unmarked) [WX069] | 35.3 nM | 1 nM |
| CCCCOCCOc1ccc(-c2ccc(C(F)(F)F)c(/C=C/C(=O)Nc3ccc([S@@+]([O-])Cc4c(C)ncn4CC)cc3)c2)cc1 [WX070] | 39.2 nM | 8.4 nM |
| CCCCOCCOc1ccc(-c2ccc(OC)c(/C=C/C(=O)Nc3ccc([S@+]([O-])Cc4c(C)ncn4CCC)cc3)c2)cc1 [WX075] | 17.3 nM | 2.4 nM |
| CCCCOCCOc1ccc(-c2ccc(OC)c(/C=C/C(=O)Nc3ccc([S@@+]([O-])Cc4c(C)ncn4CCC)cc3)c2)cc1 [WX076] | 42.2 nM | 8.5 nM |
| CCCOCCOc1ccc(-c2ccc(OC(F)F)c(/C=C/C(=O)Nc3ccc([S@+]([O-])Cc4c(C)ncn4CCC)cc3)c2)cc1 [WX080] | 25.1 nM | 15.1 nM |
| CCCCOCCOc1ccc(-c2ccc(OC(F)F)c(/C=C/C(=O)Nc3ccc([S@@+]([O-])Cc4c(C)ncn4CCC)cc3)c2)cc1 [WX082] | 53.4 nM | 11.4 nM |

More lines, in order of falling IC50 (CCR2), values ahead:

| IC50 (CCR2) | IC50 (CCR5) | Structure (SMILES) |
| --- | --- | --- |
| 13 nM | 1.8 nM | CCCCOCCOc1ccc(-c2ccc(OC)c(/C=C/C(=O)Nc3ccc([S+]([O-])Cc4cnccc4CC)cc3)c2)cc1 (centres unmarked) [WX086] |
| 12.8 nM | 6.1 nM | CCCOCCOc1ccc(-c2ccc(OC(F)F)c(/C=C/C(=O)Nc3ccc([S@@+]([O-])Cc4cncn4CCC)cc3)c2)cc1 [WX064] |
| 12.6 nM | 20.8 nM | CCCOCCOc1ccc(-c2ccc(OC)c(/C=C/C(=O)Nc3ccc([S@@+]([O-])Cc4cncn4CCC)cc3)c2)cc1 [WX050] |
| 12.5 nM | 5.5 nM | CCCCOCCOc1ccc(-c2ccc(OC(F)F)c(/C=C/C(=O)Nc3ccc([S@+]([O-])Cc4c(C)ncn4CCC)cc3)c2)cc1 [WX081] |
| 11.9 nM | 5.9 nM | CCCCOCCOc1ccc(-c2ccc(C3CCCC3)c(/C=C/C(=O)Nc3ccc([S@@+]([O-])Cc4c(C)ncn4CC)cc3)c2)cc1 [WX072] |
| 11.9 nM | 6.5 nM | CCCCOCCOc1ccc(-c2ccc(C3CCCC3)c(/C=C/C(=O)Nc3ccc([S@+]([O-])Cc4c(C)ncn4CC)cc3)c2)cc1 [WX073] |
| 11.8 nM | 2.6 nM | CCCCOc1ccc(-c2ccc(OC)c(/C=C/C(=O)Nc3ccc([S@@+]([O-])Cc4cncn4CCC)cc3)c2)cc1 [WX048] |
| 9.9 nM | 8.5 nM | CCCCOCCOc1ccc(-c2cc(C)cc(/C=C/C(=O)Nc3ccc([S@@+]([O-])Cc4cncn4CCC)cc3)c2)cc1 [WX059] |
| 9.4 nM | 1.4 nM | CCCOc1ccc(-c2ccc(OC(F)F)c(/C=C/C(=O)Nc3ccc([S@+]([O-])Cc4c(C)ncn4CC)cc3)c2)cc1 [WX063] |
| 8.9 nM | 15.2 nM | CCCCOCCOc1ccc(-c2ccc(OC(F)F)c(/C=C/C(=O)Nc3ccc([S@@+]([O-])Cc4c(C)ncn4CC)cc3)c2)cc1 [WX061] |
| 7.6 nM | 6.4 nM | CCCCOCCOc1ccc(-c2ccc(OC(F)(F)F)c(/C=C/C(=O)Nc3ccc([S@+]([O-])Cc4c(C)ncn4CC)cc3)c2)cc1 [WX055] |
| 6.5 nM | 10.1 nM | CCCOCCOc1ccc(-c2ccc(OC)c(/C=C/C(=O)Nc3ccc([S@+]([O-])Cc4c(C)ncn4CC)cc3)c2)cc1 [WX066] |
| 5.9 nM | 1.3 nM | CCCCOCCOc1ccc(-c2cc(Cl)c(OC)c(/C=C/C(=O)Nc3ccc([S@@+]([O-])Cc4cncn4CCC)cc3)c2)cc1 [WX053] |
| 5.5 nM | 1.4 nM | CCCCOCCOc1ccc(-c2ccc(OC(F)F)c(/C=C/C(=O)Nc3ccc([S@@+]([O-])Cc4cncn4CCC)cc3)c2)cc1 [WX051] |
| 5.5 nM | 6.9 nM | CCCCOCCOc1ccc(-c2cc(C)c(OC)c(/C=C/C(=O)Nc3ccc([S@+]([O-])Cc4c(C)ncn4CC)cc3)c2)cc1 [WX090] |
| 5.4 nM | 3.5 nM | CCCOCCOc1ccc(-c2ccc(OC(F)F)c(/C=C/C(=O)Nc3ccc([S@+]([O-])Cc4c(C)ncn4CC)cc3)c2)cc1 [WX074] |
| 5.2 nM | 5.6 nM | CCCCOCCOc1ccc(-c2ccc(OC)c(/C=C/C(=O)Nc3ccc([S@+]([O-])Cc4cncn4CCC)cc3)c2)cc1 [WX085] |
| 4.7 nM | 4.4 nM | CCCCOCCOc1ccc(-c2ccc(F)c(/C=C/C(=O)Nc3ccc([S@+]([O-])Cc4c(C)ncn4CC)cc3)c2)cc1 [WX091] |
| 4.5 nM | 3.4 nM | CCCCOCCOc1ccc(-c2ccc(C(F)(F)F)c(/C=C/C(=O)Nc3ccc([S@+]([O-])Cc4c(C)ncn4CC)cc3)c2)cc1 [WX071] |
| 3.9 nM | 10.1 nM | CCCCOCCOc1ccc(-c2cc(C)cc(/C=C/C(=O)Nc3ccc([S@+]([O-])Cc4c(C)ncn4CC)cc3)c2)cc1 [WX092] |
| 1.1 nM | 2.8 nM | CCCCOCCOc1ccc(-c2ccc(OC(F)F)c(/C=C/C(=O)Nc3ccc([S@+]([O-])Cc4c(C)ncn4CC)cc3)c2)cc1 [WX046] |
